Test results taken from ChEMBL document CHEMBL1121413, “Synthesis, beta-adrenergic activity, and platelet antiaggregatory activity of a positional isomer of trimetoquinol: 1-(2',4',5'-trimethoxybenzyl)-6,7-dihydroxy-1,2,3,4,-tetrahydroisoquinoline” (J Med Chem, 1980).

Legend:
[1] = target: T1, Adrenergic receptor beta (Homo sapiens) (UniProt P08588+P07550+P13945); settings: Cavia porcellus
Description: Tested for potent Beta adrenergic receptor action in the atria of guinea pig

[2] = target: T1, Adrenergic receptor beta (Homo sapiens); settings: Cavia porcellus; remark: listed apart in the source

Compound: COc1cc(CC2NCCc3cc(O)c(O)cc32)cc(OC)c1OC (configuration not stated)
- pD2 [1]: 8.8
- pD2 [2]: 7.8
